Measurements from US20140086938A1, “METHODS OF INHIBITING TUMOR GROWTH USING TTK ANTAGONISTS” (University Health Network, priority 2007, published 2014).

How the values were obtained:
Assay in all cases: SP600125 SRB growth inhibition
Format in all cases: cell-based
[1] = system: 184A; settings: Homo sapiens, 120 h, SRB assay 5 days after addition
Experimental: (§1) Compound SP600125 was purchased from Biomol International (PA, USA). 10 mM stock was prepared in 100% DMSO. Cells were seeded at various numbers, ranging from 1500 to 4000 per 80 μl in each well according to cell growth rate, into 96 well plates, 24 hours before compound overlay. The 10 mM SP600125 compounds stock in 100% DMSO was diluted with Opti-MEM I Reduced-Serum Medium (Invitrogen, Burlington, ON, Canada) to concentrations range from 50 nM to 250 μM. 20 μl from each concentration was overlay to cells to make the final concentrations range from 10 nM to 50 μM. The cells were cultured for 5 days before Sulforhodamine B assay. SRB assay is performed to assess cell survival. SRB is a water-soluble dye that binds to the basic amino acids of the cellular proteins. Thus, colorimetric measurement of the bound dye provides an estimate of the total protein mass that is related to the cell number. the cells are fixed in situ by gently aspirating off the culture media and adding 50 μl ice cold 10% Tri-chloroacetic Acid (TCA) per well and incubate at 4° C. for 30-60 min. The plates are washed with tap water five times and allowed to air dry for 5 min. Add 50 μl 0.4% (w/v) Sulforhodamine B solution in 1% (v/v) acetic acid per well and incubate for 30 min at RT for staining. Following staining, plates are washed four times with 1% acetic acid to remove any unbound dye and then allowed to air dry for 5 min. Stain is solubilized with 100 ul of 10 mM Tris pH 10.5 per well. Absorbance is read at 570 nm. The cell survival percentage in each compound concentration was calculated over the cell DMSO control, which was growing in the presence of 0.1% DMSO (0.5% in the case of 50 μM compounds). The GI50 were calculated using GraphPad PRISM software.
(§2) Cell viability was assessed using the SRB assay described herein, which was performed 5 days after the addition of SP600125 to the culture media. Prism software was used to calculate GI50 (concentration of the compound required to achieve 50% growth inhibition) (Table 3).

[2] = system: BT474; settings: Homo sapiens, BT-474, 120 h, SRB assay 5 days after addition
Experimental: as §1, §2

[3] = system: HCC1419; settings: Homo sapiens, 120 h, SRB assay 5 days after addition
Experimental: as §1, §2

[4] = system: Hs578T; settings: Homo sapiens, Hs-578T, 120 h, SRB assay 5 days after addition
Experimental: as §1, §2

[5] = system: MCF-7; settings: Homo sapiens, MCF7, 120 h, SRB assay 5 days after addition
Experimental: as §1, §2

[6] = system: MDA-MB-231; settings: Homo sapiens, 120 h, SRB assay 5 days after addition
Experimental: as §1, §2

[7] = system: MDA-MB-330; settings: Homo sapiens, 120 h, SRB assay 5 days after addition
Experimental: as §1, §2

[8] = system: MDA-MB-435; settings: Homo sapiens, 120 h, SRB assay 5 days after addition
Experimental: as §1, §2

[9] = system: MDA-MB-453; settings: Homo sapiens, 120 h, SRB assay 5 days after addition
Experimental: as §1, §2

[10] = system: MDA-MB-468; settings: Homo sapiens, 120 h, SRB assay 5 days after addition
Experimental: as §1, §2

[11] = system: SKBr-3; settings: Homo sapiens, SK-BR-3, 120 h, SRB assay 5 days after addition
Experimental: as §1, §2

[12] = system: T47D; settings: Homo sapiens, 120 h, SRB assay 5 days after addition
Experimental: as §1, §2

In the case of `Oc1c2ccccc2c2c3c(cccc13)N=N2` [SP600125, anthra(1,9-cd)pyrazol-6(2H)-one 1,9-pyrazoloanthrone], the GI50 [1] is reported as 1590 nM, the GI50 [2] is reported as 8.59 µM and the GI50 [3] is reported as 10 µM. The GI50 [4] was 1840 nM, the GI50 [5] was 672 nM and the GI50 [6] was 894 nM. The GI50 [7] was 7.02 µM, the GI50 [8] was 822 nM and the GI50 [9] was 2300 nM. The GI50 [10] was 483 nM, the GI50 [11] was 812 nM and the GI50 [12] was 2520 nM.
